The values that follow are results of earlier work, collected in patent US9364479B2, “Use of a receptor-type kinase modulator for treating polycystic kidney disease” (SYMPHONY EVOLUTION, INC., priority 2010, dated 2016).

Each structure is given as a SMILES string.

Data set [1] concerns PKD model. The following applies: in vivo; cited from earlier work.
The test system of data set [2] is bpk mice. The following applies: cited from earlier work.
The test system of data set [3] is bpk mice or PCK rat. As to conditions: cited from earlier work.

Take `CCOc1cc2ncc(C#N)c(Nc3ccc(F)c(Cl)c3)c2cc1NC(=O)/C=C/CN(C)C` [EKB-569]: the “cyst formation and renal function, in words” value in data set [1] was “effective in reducing cyst formation and maintaining normal renal function”.
In the case of `CC#CC(=O)Nc1ccc2ncnc(Nc3cccc(Br)c3)c2c1` [EKI-785], in data set [2], the “progression of PKD, in words” value is “effective in preventing the progression of PKD”.
For the molecule `COc1cc(Nc2c(C#N)cnc3cc(OCCCN4CCN(C)CC4)c(OC)cc23)c(Cl)cc1Cl` [SKI-606], in data set [3], the “renal cyst formation and biliary duct abnormalities, in words” value was “ameliorated renal cyst formation and biliary duct abnormalities”.
